Measurements reported in US20100240924A1, “2-ETHYL-4,6-DIMETHYL-PHENYL-SUBSTITUTED TETRAMIC ACID DERIVATIVES AS PEST CONTROL AGENTS AND/OR HERBICIDES” (BAYER CROPSCIENCE AG, priority 2003, published 2010).

Legend:
Lolium = assay: Herbicidal post-emergence action (Example A, greenhouse); type: in vivo; details: 320 g of a.i./ha
Procedure: (§1) Seeds of monocotyledonous and dicotyledonous weed and crop plants are placed into sandy loam in wood fibre pots, covered with soil and cultivated in a greenhouse under good growth conditions. 2-3 weeks after sowing, the test plants are treated at the one-leaf stage. The test compounds, formulated as wettable powders (WP), are, in various dosages with a water application rate of. 600 l/ha (converted), with 0.2% of wetting agent added, sprayed onto the green parts of the plants. After the test plants were kept in the greenhouse under optimum growth conditions for about 3 weeks, the effect of the preparations is rated visually in comparison to untreated controls (herbicidal effect in percent (%): 100% effect=the plants have died, 0% effect=like control plants).

Stellaria = assay: as above; type: in vivo; details: 320 g of a.i./ha, rated visually after about 3 weeks
Procedure: as §1

Avena sativa = assay: as above; type: in vivo; details: 320 g of a.i./ha
Procedure: as §1

Sinapis = assay: as above; type: in vivo; details: 320 g of a.i./ha, rated visually after about 3 weeks
Procedure: as §1

Setaria = assay: as above; type: in vivo; details: 320 g of a.i./ha
Procedure: as §1

[1] = tested on: larvae of the mustard beetle (Phaedon cochleariae); assay: Phaedon test (spray treatment); type: in vivo; details: 500 g/ha, spray treatment of Chinese cabbage discs
Procedure: [table] To produce a suitable preparation of active compound, 1 part by weight of active compound is mixed with the stated amounts of solvents and emulsifier, and the concentrate is diluted with emulsifier-containing water to the desired concentration. Discs of Chinese cabbage (Brassica pekinensis) are sprayed with a preparation of active compound of the desired concentration and, after they have dried, populated with larvae of the mustard beetle (Phaedon cochleariae).

[2] = tested on: greenhouse red spider mite (Tetranychus urticae); assay: Tetranychus test (OP-resistant/spray treatment); type: in vivo; details: 100 g/ha, OP-resistant, spray treatment of bean leaf discs
Procedure: To produce a suitable preparation of active compound, 1 part by weight of active compound is mixed with the stated amounts of solvents and emulsifier, and the concentrate is diluted with emulsifier-containing water to the desired concentration.
Discs of bean leaves (Phaseolus vulgaris) which are infested by all stages of the greenhouse red spider mite (Tetranychus urticae) are sprayed with a preparation of active compound of the desired concentration.
After the desired period of time, the activity in % is determined. 100% means that all spider mites have been killed; 0% means that none of the spider mites have been killed.

Summer barley = assay: Herbicidal post-emergence action, use of safeners, vessel trials with cereals in the greenhouse (Example B); details: in vivo
Procedure: (§2) Seeds of monocotyledonous and dicotyledonous weed and crop plants are placed into sandy loam in wood fibre pots or in plastic pots, covered with soil and cultivated in a greenhouse, during the vegetation period also outdoors outside of the greenhouse, under good growth conditions. 2-3 weeks after sowing, the test plants are treated at the one- to three-leaf stage. The test compounds, formulated as wettable powders (WP) or emulsifiable concentrates (EC) are, in various dosages with a water application rate of 300 l/ha (converted), with wetting agent (0.2 to 0.3%) added, sprayed onto the plants and the surface of the soil. 3-4 weeks after the treatment of the test plants, the effect of the preparations is rated visually in comparison to untreated controls (herbicidal effect in percent (%): 100% effect=the plants have died, 0% effect=like control plants). […]

Summer wheat = assay: as above; details: in vivo
Procedure: as §2

[3] = rated visually after about 3 weeks (second table)
[4] = rated visually after about 3 weeks

Row | SMILES | herbicidal effect in percent, Lolium (Lolium; [3]) [%] | herbicidal effect in percent, Avena sativa (Avena sativa; [3]) [%] | herbicidal effect in percent, Sinapis (Sinapis) [%] | herbicidal effect in percent, Setaria (Setaria; [3]) [%] | herbicidal effect in percent, Lolium (Lolium; [4]) [%] | herbicidal effect in percent, Avena sativa (Avena sativa; [4]) [%] | herbicidal effect in percent, Setaria (Setaria; [4]) [%] | further results
1 | CCOC(=O)OC1=C(c2c(C)cc(C)cc2CC)C(=O)NC1(C)C [I-c-2] | 100 | 100 | 70 | 100 |  |  |  | herbicidal effect in percent, Stellaria (Stellaria): 70%
2 | CCOC(=O)OC1=C(c2c(C)cc(C)cc2CC)C(=O)N(CC)C1C (centres unmarked) [Example I-c-1] |  |  |  |  | 100 | 90 | 100 | 
3 | CCc1cc(C)cc(C)c1C1=C(O)C(C)N(CC)C1=O (centres unmarked) [Example I-a-1] |  |  |  |  | 100 | 80 | 90 | 
4 | CCc1cc(C)cc(C)c1C1=C(OC(=O)C(C)C)C(C)(C2CC2)NC1=O (centres unmarked) [Example I-b-10] |  |  |  |  |  |  |  | Kill rate in % after 5 d [1]: 100%; Kill rate in % after 5 d [2]: 90%
5 | CCc1cc(C)cc(C)c1C1=C(O)CN(C2CC2)C1=O [I-a-3] | 100 | 80 | 70 | 90 |  |  |  | 
6 | CCc1cc(C)cc(C)c1C1=C(OC(=O)C(C)C)C(C)(C)NC1=O [Example I-b-2] | 100 | 100 | 70 | 100 |  |  |  | herbicidal effect in percent, Stellaria (Stellaria): 80%
7 | CCc1cc(C)cc(C)c1C1=C(OC(=O)C(C)(C)C)C(C)(C(C)C)NC1=O (centres unmarked) [I-b-3] |  |  |  |  | 70 | 90 | 80 | 
8 | CCc1cc(C)cc(C)c1C1=C(O)C(C)(C(C)C)NC1=O (centres unmarked) [I-a′-2] |  |  |  |  |  |  |  | Summer barley observed (%) (Summer barley): 20%; Summer wheat observed (%) (Summer wheat): 25%
9 | CCc1cc(C)cc(C)c1C1=C(OC(=O)C(C)C)C(CC)(CC)NC1=O [Example I-b-18] |  |  |  |  |  |  |  | Kill rate in % after 5 d [1]: 100%; Kill rate in % after 5 d [2]: 100%
10 | CCOC(=O)OC1=C(c2c(C)cc(C)cc2CC)C(=O)NC1(C)C(C)C (centres unmarked) [Example I-c-3] |  |  |  |  | 100 | 90 | 90 | 
